Measurements reported in PMC9861830, “Hydroxylated Coumarin-Based Thiosemicarbazones as Dual Antityrosinase and Antioxidant Agents” (International Journal of Molecular Sciences, 2023).

How the values were obtained:
[1] = DPPH radical scavenging assay; details: for EC50: ethanol, absorbance at 517 nm, 30 min, mean ± SEM, three experiments
Procedure: The antioxidant activity of T1 and its hydroxylated derivatives T2–6 was evaluated via DPPH assay, which is based on the ability of the stable DPP· radical species to be converted in its diamagnetic form (DPPH) by accepting an H· from the tested compound. […] From the evaluation of the relative decrease in absorbance at different concentrations of each tested compound, the antioxidant activities were evaluated by reporting their EC50 values, as shown in Table 1.
(§1) Radical scavenging activities were measured with DPPH and ABTS radical scavenging assays. […] In brief, for the DPPH antioxidant assay procedure, each test compound was dissolved in DMSO at 1.0 mM concentration and then diluted with absolute ethanol in the 500–2.0 µM concentration range. A solution of the DPPH radical (0.1 mM, absolute ethanol) was freshly prepared, stored in the dark, and used within a few hours. Each test solution (1500 µL) was vigorously mixed to an equal volume of DPPH inside a cuvette, and the molecular absorbance at 517 nm was recorded for 30 min. Each test was evaluated in three independent experiments. Ascorbic acid was used as the reference compound. For the ABTS method, based on the capacity of an antioxidant to scavenge the free ABTS^+ generated in the aqueous phase by reacting with a strong oxidizing, the free radical ABTS was produced by reacting 7 mM ABTS with 2.45 mM potassium persulfate in aqueous solution and kept in darkness at room temperature for 24 h before use. Samples of each compound (10 µL) were added to 990 µL of ABTS, and the reduction of the blue-green radical ABTS by hydrogen-donating antioxidants was evaluated by measuring the absorbance at 734 nm after 1 min incubation. The 6-hydroxy-2,5,7,8-tetramethylchromane-2-carboxylic acid (Trolox) was used as the antioxidant standard.

[2] = ABTS radical scavenging assay; details: absorbance at 734 nm after 1 min; mean ± SEM, three experiments
Procedure: as §1

mushroom tyrosinase = test: Tyrosinase inhibition assay (L-DOPA, dopachrome at 492 nm; Lineweaver–Burk plots); assay type: biochemical; details: for IC50: L-DOPA 0.5 mM, pH 6.8, 37 °C, mean ± SD, three experiments; for Ki: secondary plot of slope, read-out: Ki (inhibitor binding with free enzyme); for inhibition mode: Lineweaver–Burk plots, L-DOPA
Procedure: The inhibition of mushroom tyrosinase was evaluated as previously described with slight modifications. A mixture containing 50 mM phosphoric acid buffer solution (pH 6.8), a solution of mushroom tyrosinase (72 U/mL final concentration; Sigma Chemical Co., Milan, Italy), and DMSO with or without the sample were incubated at 37 °C for 10 min. Then, L-DOPA solution (0.5 mM final) was added, and the reaction was monitored following the molecular absorbance at 492 nm that resulted from the formation of the dopachrome product. Measurements were performed using a FLUOstar OPTIMA (BMG Labtech, Offenburg, Germany). […] The inhibition mode was analysed using the Lineweaver–Burk plots.

[3] = Potentiometric and spectrophotometric titrations (protonation constants, speciation); assay type: physicochemical; details: for Logβ / pK: 25 °C, NaCl 0.1 M; for species present at pH of the enzymatic inhibitory studies: pH 6.8
Procedure: Potentiometric titrations were performed in a thermostated vessel at 25 °C in 0.1 M ionic strength (NaCl) using a Mettler-Toledo Seven Compact pH/Ion-meter and equipped with a Mettler-Toledo InLab Micro Pro combined glass electrode with an integrated temperature probe. The glass electrode was calibrated daily and checked using the GLEE software package. UV–visible (UV–Vis) measurements were carried out with an Agilent Cary 60 spectrophotometer using a 0.1 cm quartz cuvette. Protonation constants of the studied molecules were determined via spectrophotometric and potentiometric titrations. Solutions of ligands were prepared daily by dissolving a suitable amount of the compound in DMSO (concentration ≈ 12 mM) prior to the required dilution in 0.1 M NaCl (final DMSO content 1% V/V, concentration ≈ 1.2∙10^−4 M). Four HCl equivalents for T1, five for T2–4, and six for T5–6 were added before titrating with an NaOH standard solution. Potentiometric and spectrophotometric data were simultaneously analysed using the Hyperquad 2006 software package. Speciation diagrams were obtained using Hyss 2009 program with the spectrophotometric data. The number of linearly independent absorbing species was found by applying the eigenvalue analysis to the absorbance data matrix.

[4] = Cell viability assay (MTT); assay type: cell-based, Murine; details: mouse, B16F10 melanoma cells, 100 μM, percentage of control
Procedure: (§2) The cellular cytotoxicity of compound T6 was investigated using a 3-(4,5-dimethylthiazol-2-yl)-2,5-diphenil-tetrazolium bromide (MTT) assay. Murine melanoma B16F10 cells were seeded in 96-well plates at a density of 5 × 10^3 cells/well and cultured in Dulbecco’s Modified Eagle Medium (DMEM) with 10% fetal bovine serum at 37 °C in a humidified atmosphere with 5% CO2. The B16F10 cell line was exposed for 48 h to compound T6 at concentrations ranging from 4 to 100 μM. After incubation, culture supernatants were removed and exchanged with a medium containing 0.5 mg/mL MTT. Then, after 3 h of incubation at 37 °C, the cells were lysed with 100 μL of DMSO. The absorbance was determined at 560 nm using a microplate reader (Multiskan FC-Thermo Scientific Inc. Waltham, MA, USA).

B16F10 cells = test: Cell viability assay (MTT); assay type: cell-based, Murine; details: 48 h
Procedure: as §2

[5] = L + H^+ ⇌ HL (first protonation)

Row | SMILES | EC50 [1] | EC50 [2] | IC50 (mushroom tyrosinase) | Logβ ([3]; L + 2H^+ ⇌ H2L) | Logβ ([3]; L + 3H^+ ⇌ H3L) | Logβ [3, 5] | pK [3, 5] | pK ([3]; step to H2L) | pK ([3]; step to H3L) | melting point | Logβ ([3]; L + 4H^+ ⇌ H4L) | pK ([3]; step to H4L) | also measured
1 | O=C1O[C@H]([C@@H](O)CO)C(O)=C1O [Ascorbic Acid, Ascorbic acid, reference compound] | 18.6 ± 0.6 µM | – | – | – | – | – | – | – | – | – | – | – | –
2 | C/C(=N\NC(N)=S)c1cc2ccccc2oc1=O [T1, (1E)-2-(1-(2-oxo-2H-chromen-3-yl)ethylidene)hydrazine-1-carbothioamide] | > 250 µM | 72 ± 6 µM | 4 ± 2 µM | 13.47 (9) | 17.45 (8) | 8.46 (9) | 8.5 | 5.0 | 4.0 | – | – | – | Ki (mushroom tyrosinase; L-DOPA substrate): 0.85 µM; inhibition mode (mushroom tyrosinase): competitive inhibition; species present in blood plasma ([3]; pH 7.4): neutral form (as HL)
3 | C/C(=N\NC(N)=S)c1cc2cc(O)ccc2oc1=O [T2, (1E)-2-(1-(6-hydroxy-2-oxo-2H-chromen-3-yl)ethylidene)hydrazine-1-carbothioamide] | > 250 µM | 25.7 ± 0.4 µM | 14 ± 7 µM | 17.24 (6) | 22.4 (1) | 10.20 (8) | 10.2 | – | 5.4 | 222 to 224 °C (dec.) | 26.7 (1) | 4.3 | –
4 | C/C(=N\NC(N)=S)c1cc2ccc(O)cc2oc1=O [T3, (1E)-2-(1-(7-hydroxy-2-oxo-2H-chromen-3-yl)ethylidene)hydrazine-1-carbothioamide] | > 250 µM | 36 ± 1 µM | 5 ± 2 µM | 17.6 (1) | 23.26 (7) | 10.5 (1) | 10.5 | 7.1 | 5.7 | – | 26.7 (1) | 3.4 | –

Further lines, with some results ahead:

Row | EC50 [1] | EC50 [2] | IC50 (mushroom tyrosinase) | Logβ ([3]; L + 2H^+ ⇌ H2L) | Logβ ([3]; L + 3H^+ ⇌ H3L) | Logβ [3, 5] | pK [3, 5] | pK ([3]; step to H2L) | pK ([3]; step to H3L) | melting point | Logβ ([3]; L + 4H^+ ⇌ H4L) | pK ([3]; step to H4L) | SMILES | also measured
5 | 28 ± 2 µM | 21.8 ± 0.8 µM | 5.7 ± 0.8 µM | 17.26 (1) | 22.94 (5) | 10.4 (1) | 10.4 | 6.9 | 5.7 | 208 to 210 °C (dec.) | 26.5 (2) | 3.6 | C/C(=N\NC(N)=S)c1cc2cccc(O)c2oc1=O [T4, (1E)-2-(1-(8-hydroxy-2-oxo-2H-chromen-3-yl)ethylidene)hydrazine-1-carbothioamide] | radical scavenging / antioxidant activity in DPPH assay (in words) ([1]; in comparison with ascorbic acid): modest antioxidant activity
6 | 7.1 ± 0.3 µM | 9 ± 1 µM | 6 ± 2 µM | 18.46 (9) | 24.76 (7) | 10.7 (1) | 10.7 | 7.8 | 6.3 | 228 to 230 °C (dec.) | 29.50 (6) | 4.7 | C/C(=N\NC(N)=S)c1cc2cc(O)c(O)cc2oc1=O [T5, (1E)-2-(1-(6,7-dihydroxy-2-oxo-2H-chromen-3-yl)ethylidene)hydrazine-1-carbothioamide] | species present at pH of the enzymatic inhibitory studies [3]: monoanionic form, H2L^-
7 | 17.9 ± 0.4 µM | 8.8 ± 0.4 µM | 4.1 ± 0.7 µM | 19.3 (1) | 25.1 (1) | 10.5 (2) | 10.5 | 8.8 | 5.8 | 228 to 230 °C (dec.) | 29.5 (1) | 4.4 | C/C(=N\NC(N)=S)c1cc2ccc(O)c(O)c2oc1=O [T6, (1E)-2-(1-(7,8-dihydroxy-2-oxo-2H-chromen-3-yl)ethylidene)hydrazine-1-carbothioamide] | viability at 48 h, 100 µM [4]: > 90%; cytotoxic effect (in words) (B16F10 cells; 4 μM): no cytotoxic effect; cytotoxicity (in words) (B16F10 cells; 4–100 μM): not cytotoxic; Kis (inhibitor binding with enzyme–substrate complex) (mushroom tyrosinase; L-DOPA substrate, secondary plot of 1/Vmax): 10.65 µM; Ki (mushroom tyrosinase; L-DOPA substrate): 5.88 µM; inhibition mode (mushroom tyrosinase): mixed-type inhibitor; species present at pH of the enzymatic inhibitory studies [3]: monoanionic form, H2L^-
8 | – | 13 ± 1 µM | – | – | – | – | – | – | – | – | – | – | Cc1c(C)c2c(c(C)c1O)CCC(C)(C(=O)O)O2 (stereo not drawn) [Trolox, 6-hydroxy-2,5,7,8-tetramethylchromane-2-carboxylic acid, reference compound] | –
